Test: Inhibition of human Nav1.8 expressed in HEK293 cells assessed as sodium current flow at holding potential of -90mV by Whole cell-automated patch clamp assay
Type: cell-based
An IC50 of 0.6 nM was found for `Cc1cc(C(NC(=O)[C@@H]2CNC(=O)O2)c2ccc(Cl)cc2)ccc1Cl` (stereo partly specified) in this work. An IC50 of 0.7 nM was found for `O=C1NC[C@@H](C(=O)NC(c2ccc(F)c(Cl)c2)c2ccc(F)c(Cl)c2)O1` in this work. An IC50 of 0.4 nM was found for `O=C1NC[C@@H](C(=O)NC(c2ccc(Cl)cc2)c2ccc(Cl)c(C(F)(F)F)c2)O1` (stereo partly specified) in this work. An IC50 of 0.9 nM was found for `O=C1NC[C@@H](C(=O)NC(c2ccc(Cl)cc2)c2ccc(F)c(Cl)c2)O1` (stereo partly specified) in this work. An IC50 of 0.6 nM was found for `O=C1NC[C@@H](C(=O)NC(c2ccc(Cl)cc2)c2ccc(Cl)c(C(F)(F)F)n2)O1` (stereo partly specified) in this work. An IC50 of 1.2 nM was found for `O=C1NC[C@@H](C(=O)NC(c2ccc(OC(F)(F)F)c(Cl)c2)c2cnn(C(F)(F)F)c2)O1` (stereo partly specified) in this work.

— ChEMBL document CHEMBL5036374, “2-Oxooxazolidine-5-carboxamides as Nav1.8 Inhibitors for Treating Pain Disorders, Cough Disorders, and Acute and Chronic Itch Disorders” (ACS Med Chem Lett, 2022)
